IC50 and IC90 data for 38 compounds are collected here from ChEMBL document CHEMBL4483862, “Open-source discovery of chemical leads for next-generation chemoprotective antimalarials” (2018).

pIC50: −log10 of the molar value. Where only a bound is given, the exact number is not on record here.

The test relates to Plasmodium berghei. Briefly: Luciferase/luciferin-expressing antifolate-resistant parasites were used to infect a culture of HepG2 cells that were pre-incubated with compounds. Infected hepatocytes emit light due to the luciferase reaction. Assay results are presented as the percent inhibition of light emission compared to control. […]. To be noted: sporozoite; for IC90: read-out: LUCIFERASE INFECTION ASSAY - IC90. It counts as functional.

The mark [1] stands for this setting: read-out: LUCIFERASE INFECTION ASSAY - IC50.

As to `N=C(NOC(=O)Nc1cccc(C(F)(F)F)c1)c1ccc(Oc2c(Cl)cncc2Cl)cc1`, the IC90 was over 6.8 µM. Moreover, for the setting “HEPG2TOX_HILL_SLOPE 7.08, HEPG2TOX_R_SQUARED 0.63, PBLUC_HILL_SLOPE 1.44, PBLUC_R_SQUARED 0.448, read-out: LUCIFERASE INFECTION ASSAY - IC50”, the pIC50 was 5.31.

Consider `Cc1sc2ncnc(NC(C)c3ccc(-n4ccnc4)cc3)c2c1C` (stereo unspecified), for which the IC90 is over 10 µM. The pIC50 (HEPG2TOX_HILL_SLOPE 0.71, HEPG2TOX_R_SQUARED 0.913, PBLUC_HILL_SLOPE 1.13, PBLUC_R_SQUARED 0.519, read-out: LUCIFERASE INFECTION ASSAY - IC50) was 5.59.

`O=C(Nc1nc2ccccn2c1C(=O)NC1CCCC1)c1c(F)cccc1F`: the IC90 is over 8.59 µM. Moreover, the pIC50 (PBLUC_HILL_SLOPE 3.61, PBLUC_R_SQUARED 0.639, read-out: LUCIFERASE INFECTION ASSAY - IC50) is 5.20.

Regarding `O=C(Cc1cccs1)Nc1ccc(Cl)c(C(F)(F)F)c1`, the concentration for an effect of 90% (IC90) was over 10 µM. Moreover, the pIC50 under setting [1] was under 5.00.

Regarding `CN(C)c1ccc(NC(=O)CCc2nc(-c3ccc(Cl)cc3)no2)c(C#N)c1Cl`, the IC90 was over 7.67 µM. For the same compound, for the setting “HEPG2TOX_HILL_SLOPE 10.4, HEPG2TOX_R_SQUARED 0.728, PBLUC_HILL_SLOPE 0.523, PBLUC_R_SQUARED 0.342, read-out: LUCIFERASE INFECTION ASSAY - IC50”, the pIC50 was under 5.12.

For `NS(=O)(=O)c1ccc(N/N=C/c2cn(-c3ccccc3)nc2-c2cccs2)c([N+](=O)[O-])c1`, the concentration for an effect of 90% (IC90) was over 10 µM. For the same compound, the pIC50 under setting [1] is under 5.00.

For `CCOc1ccc(C(=O)COC(=O)c2c3ccccc3cc3ccccc23)cc1`, the IC90 is over 10 µM. Under setting [1], the pIC50 is under 5.00.

As for `Cc1nn2c(=O)cc(CSc3ccc(Cl)cc3)[nH]c2c1-c1ccccc1`, the IC90 is 1.17 µM. Besides, the negative-log IC50 (pIC50) (FFLUC_HILL_SLOPE 20.8, FFLUC_R_SQUARED 0.612, HEPG2TOX_HILL_SLOPE 1.69, HEPG2TOX_R_SQUARED 0.683, PBLUC_HILL_SLOPE 14, PBLUC_R_SQUARED 0.557, read-out: LUCIFERASE INFECTION ASSAY - IC50) was 6.00.

With `CCOC(=O)c1sc(N)c(C#N)c1CSc1nnc(Nc2ccc(CC)cc2)s1`, the IC90 came out at 5.14 µM. The pIC50 (HEPG2TOX_HILL_SLOPE 1.26, HEPG2TOX_R_SQUARED 0.992, PBLUC_HILL_SLOPE 3.19, PBLUC_R_SQUARED 0.556, read-out: LUCIFERASE INFECTION ASSAY - IC50) is 5.59.

As to `CCOC(=O)c1c(CN2C(=O)NC3(CCCc4sccc43)C2=O)nc2ccccc2c1C` (stereo unspecified), the 90% effect concentration (IC90) was over 10 µM. Also, the pIC50 under setting [1] is under 5.00.

Turning to `OCc1ccc(-c2cnc3ccc(-c4cccc(Cl)c4)nn23)cc1`, the concentration for an effect of 90% (IC90) came to 3.31 µM. The pIC50 (FFLUC_HILL_SLOPE 12.3, FFLUC_R_SQUARED 0.916, HEPG2TOX_HILL_SLOPE 9.11, HEPG2TOX_R_SQUARED 0.904, PBLUC_HILL_SLOPE 1.55, PBLUC_R_SQUARED 0.705, read-out: LUCIFERASE INFECTION ASSAY - IC50) was 6.10.

As for `CCC(C)c1ccc(NC(=O)Cc2ccc(NS(=O)(=O)c3ccc(Cl)c(Cl)c3)cc2)cc1` (stereo unspecified), the IC90 is over 10 µM. In addition, the pIC50 (PBLUC_HILL_SLOPE 11.4, PBLUC_R_SQUARED 0.218, read-out: LUCIFERASE INFECTION ASSAY - IC50) is 5.02.

On to `Cc1nc(CCNC(=O)Cc2cn(-c3ccccc3)nc2-c2ccc(Cl)cc2)cs1`, for which the IC90 is over 10 µM. The pIC50 (HEPG2TOX_HILL_SLOPE 0.133, HEPG2TOX_R_SQUARED 0.316, PBLUC_HILL_SLOPE 7.24, PBLUC_R_SQUARED 0.0479, read-out: LUCIFERASE INFECTION ASSAY - IC50) was 5.06.

Consider `O=C(Nc1ccc(Cl)cc1)O/N=C(\Nc1ccc(OC(F)(F)F)cc1)c1c(Cl)cccc1Cl`, for which the IC90 is over 6.36 µM. Under “PBLUC_HILL_SLOPE 0.408, PBLUC_R_SQUARED 0.392, read-out: LUCIFERASE INFECTION ASSAY - IC50”, the negative logarithm of the IC50 (pIC50) was under 5.20.

As for `O=C(/C=C/c1ccc(F)cc1)Nc1cc([N+](=O)[O-])c(F)cc1F`, the IC90 was over 10 µM. Moreover, the pIC50 (HEPG2TOX_HILL_SLOPE 14.4, HEPG2TOX_R_SQUARED 0.364, PBLUC_HILL_SLOPE 4.24, PBLUC_R_SQUARED 0.457, read-out: LUCIFERASE INFECTION ASSAY - IC50) was 5.06.

In the case of `CCOC(=O)N1C/C(=C/c2cccc(O)c2)C(=O)/C(=C/c2cccc(O)c2)C1`, the IC90 was 9.23 µM. Also, the pIC50 (FFLUC_HILL_SLOPE 6.86, FFLUC_R_SQUARED 0.64, HEPG2TOX_HILL_SLOPE 2, HEPG2TOX_R_SQUARED 0.958, PBLUC_HILL_SLOPE 1.44, PBLUC_R_SQUARED 0.817, read-out: LUCIFERASE INFECTION ASSAY - IC50) is 5.69.

As for `CCOC(=O)c1cc(C#N)c(Sc2n[nH]c(=O)n2Cc2ccccc2)nc1C(F)(F)F`, the concentration for an effect of 90% (IC90) was over 7.34 µM. Under setting [1], the pIC50 was under 5.13.

Regarding `O=C(Nc1ccc(OC(F)(F)F)cc1)Nc1ccc2nc(-c3ccoc3)nn2c1`, the IC90 is over 10 µM. The pIC50 under setting [1] was 5.00.

Turning to `O=c1cc(-c2ccccc2)[nH]c2cc(-c3ccccc3)nn12`, the IC90 was over 11.5 µM. Further, the pIC50 (HEPG2TOX_HILL_SLOPE 1.32, HEPG2TOX_R_SQUARED 0.936, PBLUC_HILL_SLOPE 1.62, PBLUC_R_SQUARED 0.566, read-out: LUCIFERASE INFECTION ASSAY - IC50) was 5.43.

For `COc1ccccc1N1CCN(C(=O)c2cc3cc(Cl)ccc3o2)CC1`, the IC90 is over 8.9 µM. Further, the pIC50 under setting [1] was under 5.05.

Take `C=C(c1c[nH]c2ccccc12)c1c[nH]c2ccccc12`: the concentration for an effect of 90% (IC90) is over 10 µM. In addition, the pIC50 (PBLUC_HILL_SLOPE 132, PBLUC_R_SQUARED 0.705, read-out: LUCIFERASE INFECTION ASSAY - IC50) is 5.01.

Consider `O=C(c1ccc2[nH]c3c(c2c1)CCCC3)N1CCN(Cc2nc(-c3cccs3)no2)CC1`, for which the IC90 is over 10 µM. For the same compound, the pIC50 under setting [1] is under 5.00.

With `O=C(Nc1cccc(F)c1)Nc1ccc2nc(-c3cccs3)nn2c1`, the concentration for an effect of 90% (IC90) came out at 4.34 µM. For the setting “PBLUC_HILL_SLOPE 208, PBLUC_R_SQUARED 0.19, read-out: LUCIFERASE INFECTION ASSAY - IC50”, the pIC50 is 5.37.

Consider `CC(C)c1ccc(NC(=O)Nc2nc(C(N)C3CCCCC3)cs2)cc1` (stereo unspecified), for which the 90% effect concentration (IC90) was over 8.86 µM. The pIC50 (PBLUC_HILL_SLOPE 7.05, PBLUC_R_SQUARED 0.602, read-out: LUCIFERASE INFECTION ASSAY - IC50) was 5.11.

Turning to `Cc1noc(C)c1COc1ccc(C(=O)OCC(=O)N(C)C2(C#N)CCCCC2)cc1`, the IC90 was over 10 µM. Moreover, the pIC50 under setting [1] was under 5.00.

For `COc1ccccc1-c1nc2c3c(C)c(C)n(CCCO)c3ncn2n1`, the IC90 was over 9.39 µM. Further, under “PBLUC_HILL_SLOPE 14, PBLUC_R_SQUARED 0.452, read-out: LUCIFERASE INFECTION ASSAY - IC50”, the pIC50 was 5.06.

Consider `Cc1ccc(-n2c(-c3ccc(Cl)c(C)c3)csc2=N)c(C)c1`, for which the IC90 is over 9.03 µM. The pIC50 under setting [1] is under 5.04.

Turning to `CC1(C)CC(=O)C(C(c2ccc(OCc3ccccc3)cc2)C2C(=O)CC(C)(C)CC2=O)C(=O)C1`, the IC90 was over 10 µM. Further, the pIC50 (FFLUC_HILL_SLOPE 2.7, FFLUC_R_SQUARED 0.381, read-out: LUCIFERASE INFECTION ASSAY - IC50) is under 5.00.

Regarding `Cc1ccc2c(c1)s/c(=N/C(=O)c1cccs1)n2C`, the IC90 is over 10 µM. For the same compound, the pIC50 under setting [1] is 5.64.

In the case of `COc1ccc(CN(CC(=O)NCCc2ccc(F)cc2)C(C)Cc2cccs2)cc1` (stereo unspecified), the IC90 is over 10 µM. Also, the pIC50 under setting [1] was under 5.00.

For the compound `O=C(NNC(=O)C12CC3CC(CC(C3)C1)C2)c1nn(-c2ccccc2)cc1O`, the IC90 was determined as 3.89 µM. Besides, the pIC50 under setting [1] is 5.49.

As for `Cc1c(-c2ccccc2)sc2ncnc(NCc3nnc4ccccn34)c12`, the 90% effect concentration (IC90) is over 10 µM. In addition, where the note is “HEPG2TOX_HILL_SLOPE 2.41, HEPG2TOX_R_SQUARED 0.925, PBLUC_HILL_SLOPE 1.56, PBLUC_R_SQUARED 0.71, read-out: LUCIFERASE INFECTION ASSAY - IC50”, the negative-log IC50 (pIC50) was 5.54.

Take `CC(=O)c1cccc(-c2cnc3cnc(-c4ccccc4)cn23)c1`: the IC90 is over 10.5 µM. Further, the pIC50 (PBLUC_HILL_SLOPE 2.79, PBLUC_R_SQUARED 0.249, read-out: LUCIFERASE INFECTION ASSAY - IC50) is 5.04.

With `Cc1ccc2nc(C)c(CN3CCN(c4ccc([N+](=O)[O-])cc4Cl)CC3)n2c1`, the IC90 was over 10 µM. Further, the pIC50 under setting [1] was under 5.00.

As to `COc1cccc(C(=O)Nc2nc3ccccn3c2C(=O)NC2CCCCC2)c1`, the IC90 amounted to 2.95 µM. Besides, the pIC50 (HEPG2TOX_HILL_SLOPE 2.26, HEPG2TOX_R_SQUARED 0.97, PBLUC_HILL_SLOPE 3.61, PBLUC_R_SQUARED 0.707, read-out: LUCIFERASE INFECTION ASSAY - IC50) was 5.79.

On to `O=C(Nc1ccc2c(c1)OC1(CCCC1)O2)N1CCN(c2ccc(O)cc2)CC1`, for which the IC90 came to 4.23 µM. Moreover, the pIC50 (HEPG2TOX_HILL_SLOPE 12.8, HEPG2TOX_R_SQUARED 0.476, PBLUC_HILL_SLOPE 2.26, PBLUC_R_SQUARED 0.894, read-out: LUCIFERASE INFECTION ASSAY - IC50) was 5.80.

As to `Cc1c(C(=O)OCC(=O)c2ccc(OC(F)F)cc2)sc2nc3n(c(=O)c12)CCC3`, the IC90 turned out to be 9.86 µM. For the same compound, where the note is “PBLUC_HILL_SLOPE 10.3, PBLUC_R_SQUARED 0.714, read-out: LUCIFERASE INFECTION ASSAY - IC50”, the negative-log IC50 (pIC50) was 5.10.

Regarding `O=C1C=CC(=O)N1c1cc(Cl)ccc1Cl`, the IC90 is over 13.6 µM. For the same compound, the pIC50 (FFLUC_HILL_SLOPE 10.4, FFLUC_R_SQUARED 0.533, read-out: LUCIFERASE INFECTION ASSAY - IC50) is under 4.87.

The pIC50 is the negative decadic logarithm of the IC50, by convention in mol/L. In general, IC90 refers to the concentration needed for an effect of 90%.
